# From patent US20090264342A1, “COMPOSITIONS AND METHODS FOR ANTIBIOTIC POTENTIATION AND DRUG DISCOVERY” (priority 2006, published 2009)
# Tests used:
# Type in all cases: cell-based
# [1] = system: E. coli MG1655; assay: Survival assay (CFU) of E. coli MG1655 recA+ / recA− after exposure to Nor; settings: wild type background, 3 hours of exposure to Nor 0.1 μg/mL
# Experimental: The ability of these fours strains to survive exposure to Nor was then tested. The experiment was performed as follows. Cultures were grown to early log phase in LB at 37° C. with shaking. At the 0 time point Nor was added to the cultures to a final concentration of 0.1 μg/mL. This concentration of Nor is just below the MIC for strain MG1655 under these growth conditions. Samples of the cells were collected and washed in PBS at 0, 30, 90 and 180 min time points. The number of viable cells was determined by plating the cells from each time point on LB agar and counting colonies. The CFU counts were normalized based on the time 0 time point inoculum for each culture (i.e., the CFU count obtained from the 0 time point inoculum was taken to represent 100% survival) and the log % survival was plotted (FIG. 3).
# The recA deletion caused a 10,000 fold increase in quinolone sensitivity in a wild type background after 3 hours of exposure to Nor. […] In addition, inhibiting the expression and/or activity of E. coli RecA (or its homolog in other bacteria) is expected to render bacterial strains that have acquired resistance to quinolones (e.g., due to mutation in one or more subunits of the bacterial gyrase or topoisomerase IV and/or due to increased copy number of a gene encoding one of these polypeptides) sensitive once again to these compounds.
# [2] = system: S. aureus strains wt, recAmut, grlA542, grlA542recAmut; assay: MIC for S. aureus wt, recAmut, grlA542 and grlA542recAmut strains; settings: Staphylococcus aureus
# [3] = system: E. coli MG1655; assay: Hydroxyl radical formation (HPF dye, flow cytometry) in E. coli; settings: E. coli; 250 ng/mL norfloxacin, 5 μg/mL ampicillin, 5 μg/mL kanamycin; bacteriostatic drugs; 3 hours after addition
# Experimental: (§1) Growth Conditions. In the experiments, the growth and survival of untreated exponential phase E. coli, or S. aureus, were compared to cultured treated with antibiotics at the above concentrations. E. coli cultures were treated with norfloxacin, kanamycin, ampicillin, rifamycin SV, chloramphenical, tetracycline, erythromycin, or spectinomycin, where appropriate, S. aureus cultures were treated with norfloxacin, vancomycin or chloramphenical, where appropriate.
# (§2) Hydroxyl radical and DNA damage sensor experiments using the flow cytometer. To monitor the occurrence of DNA damage, the engineered DNA damage sensor was used, which responds to auto-cleavage of LexA by activating expression of gfpmut3b. All the drug treatments and the no-drug controls were collected with both the kanamycin- and ampicillin-resistant version of the plasmid, with the exception of the ampicillin treatment (kanamycin plasmid only) and the kanamycin treatment (ampicillin plasmid only). All data were collected using a Becton Dickinson FACSCalibur flow cytometer (Becton Dickinson, San Jose, Calif.) with a 488-nm argon laser and a 515- to 545-nm emission filter (FL1) at low flow rate. The following PMT voltage settings were used: E00 (FSC), 360 (SSC) and 700 (FL1). To detect hydroxyl radical formation, the fluorescent reporter dye, 3′-(p-hydroxyphenyl) fluorescein (HPF, Invitrogen, Carlsbad, Calif.) was used at a concentration of 5 μM (1:1000) dilution), which is oxidized by hydroxyl radicals with high specificity. The following PMT voltage settings were used: E00 (FSC), 360 (SSC) and 825 (FL 1). Calibrite beads (Becton Dickinson) were used for instrument calibration.
# Flow data were processed and analyzed with MATLAB (MathWorks, Natick, Mass.) to construct figures. At least 50,000 cells were collected for each sample. In all experiments, cells were grown as described above. Samples were taken immediately before addition of drug (time zero), then every hour for 3 hours. At each timepoint, approximately […] were collected, washed once and resuspended in filtered 1×PBS, pH 7.2 (Fisher Scientific), and fluorescence was measured on the flow cytometer.
# In the present study, the Applicants chose to investigate whether hydroxyl radical formation also contributes to antibiotic-induced cell death in bacteria. Using the dye hydroxyphenyl fluorescein, HPF, which is oxidized by hydroxyl radicals with high specificity, hydroxyl radical formation was first observed over a range of hydrogen peroxide concentrations known to induce hydroxyl radicals through the reduction of hydrogen peroxide by ferrous iron. In this manner, it was possible to establish the scale of hydroxyl radical formation detectable using this dye via flow cytometry.
# [4] = system: wild-type strain of S. aureus; assay: Hydroxyl radical formation (HPF dye, flow cytometry) in S. aureus; settings: norfloxacin, chloramphenical
# Experimental: For work with S. aureus, a Staphylococcus aureus subspecies aureus Rosenback strain was used that was obtained from ATCC (29740).
# as §1, §2
# [5] = system: SOS response (LexA auto-cleavage) in E. coli; assay: SOS induction, LexA-controlled GFP DNA damage sensor; settings: 5 μg/mL Amp, 5 μg/mL Kan, 25 ng/mL Nor; 3 hours after addition
# Experimental: FIG. 37 is a set of two graphs showing SOS induction in E. coli by bactericidal antibiotics. Activation of the SOS response was monitored using an engineered sensor construct that employs the LexA repressor for control of Green Fluorescent Protein (GFP) expression. Shown are representative GFP histogram measurements taken 3 hours after addition of a, bactericidal antibiotics (5 μg/mL Amp, 5 μg/mL Kan, 25 ng/mL Nor). b, Log change in CFU/mL of ΔrecA E. coli following exposure to 5 μg/mL Kanamycin (open diamonds), 25 ng/mL Norfloxacin (open triangles), and 5 μg/mL Ampicillin (open circles). For comparison, CFU/mL are also shown for widltype E. coli exposed to 5 μg/mL Kanamycin (diamonds), 25 ng/mL Norfloxacin (triangles), and 5 μg/mL Ampicillin (circles), as well as a lower concentration of norfloxacin in these experiments to highlight the significant increase in killing in a recA knockout.
# DNA damage sensor construction. The DNA sensor construct with ampicillin resistance was described previously (D. J. Dwyer et al., “Superoxide and hydroxyl radicals contribute to gyrase inhibitor-mediated cell death in E. coli”, 2007 accepted by Mol. Syst. Biol., which is incorporated herein by reference in its entirety).
# Hydroxyl radical and DNA damage sensor experiments using the flow cytometer. […]
# Hydroxyl radical are extremely toxic, and will readily damage membrane lipids, proteins and DNA. […]
smiles,measurement,setting,value
"CCn1cc(C(=O)O)c(=O)c2cc(F)c(N3CCNCC3)cc21 [Nor, norfloxacin]",increase in quinolone sensitivity caused by recA deletion,[1],"10,000 fold"
same,MIC,[2]; strain grlA542 (quinolone resistant),12.5 µg/mL
same,MIC,[2]; strain grlA542recAmut,1.56 µg/mL
same,MIC,[2]; strain recAmut,0.19 µg/mL
same,MIC,[2]; strain wt,0.78 µg/mL
same,hydroxyl radical formation,[3],induce hydroxyl radical formation
same,hydroxyl radical formation,[4],increase in hydroxyl radical production
same,SOS activity (LexA-driven GFP expression),[5],significant increase in SOS activity
